# Reference: publication PMC5218480 (PLoS ONE, 2017)
# Test system: MV-4-11 cells
# Test: Gene expression microarray analysis (Affymetrix PrimeView) and GSEA
# Type: cell-based, human
# Design: RFU PODN (11730768_x_at) / Fold change /veh PODN (11730768_x_at) / RFU LINC00158 (11744669_a_at) / Fold change /veh LINC00158 (11744669_a_at) / RFU DUSP10 (11751237_a_at) / Fold change /veh DUSP10 (11751237_a_at) / RFU ID3 (11757404_x_at) / Fold change /veh ID3 (11757404_x_at) / RFU PLEKHG5 (11737974_s_at) / Fold change /veh PLEKHG5 (11737974_s_at) / RFU LRRC4B (11730491_at) / Fold change /veh LRRC4B (11730491_at) / RFU GIMAP4 (11747438_a_at) / Fold change /veh GIMAP4 (11747438_a_at) / RFU KRT8 (11758183_x_at) / Fold change /veh KRT8 (11758183_x_at) / RFU CNN1 (11734310_a_at) / Fold change /veh CNN1 (11734310_a_at) / RFU VPS37D (11726825_at) / Fold change /veh VPS37D (11726825_at) / RFU C10orf10 (11716522_x_at) / Fold change /veh C10orf10 (11716522_x_at) / RFU KIR2DL2 /// KIR2DL4 /// KIR2DL5A /// KIR2DL5B /// KIR2DS1 /// KIR2DS2 /// KIR2DS3 /// KIR2DS4 /// KIR3DL3 /// KIR3DL3 /// KIR3DS1 (11738374_at) / Fold change /veh KIR2DL2 /// KIR2DL4 /// KIR2DL5A /// KIR2DL5B /// KIR2DS1 /// KIR2DS2 /// KIR2DS3 /// KIR2DS4 /// KIR3DL3 /// KIR3DL3 /// KIR3DS1 (11738374_at) / RFU C1QL1 (11718748_at) / Fold change /veh C1QL1 (11718748_at) / RFU TMPRSS4 (11747572_a_at) / Fold change /veh TMPRSS4 (11747572_a_at) / RFU HAMP (11756126_x_at) / Fold change /veh HAMP (11756126_x_at) / RFU RNFT2 (11725882_a_at) / Fold change /veh RNFT2 (11725882_a_at) / RFU NR4A2 (11747474_a_at) / Fold change /veh NR4A2 (11747474_a_at) / RFU ABCC12 (11746883_a_at) / Fold change /veh ABCC12 (11746883_a_at) / RFU TMEM136 (11760407_x_at) / Fold change /veh TMEM136 (11760407_x_at) / RFU CLDN22 /// WWC2 (11732394_at) / Fold change /veh CLDN22 /// WWC2 (11732394_at) / RFU HLA-DPB1 (11760878_x_at) / Fold change /veh HLA-DPB1 (11760878_x_at) / RFU SPINT1 (11716480_a_at) / Fold change /veh SPINT1 (11716480_a_at) / RFU GAP43 (11754022_s_at) / Fold change /veh GAP43 (11754022_s_at) / RFU A4GNT (11735810_at) / Fold change /veh A4GNT (11735810_at) / RFU PRB3 (11715151_x_at) / Fold change /veh PRB3 (11715151_x_at) / RFU TUBB4B (11761932_at) / Fold change /veh TUBB4B (11761932_at) / RFU CAPN14 (11732068_a_at) / Fold change /veh CAPN14 (11732068_a_at) / RFU TMCC2 (11721928_a_at) / Fold change /veh TMCC2 (11721928_a_at) / RFU IRGQ (11745062_a_at) / Fold change /veh IRGQ (11745062_a_at) / RFU FAM174B (11720279_a_at) / Fold change /veh FAM174B (11720279_a_at) / RFU TMPRSS4 (11748680_a_at) / Fold change /veh TMPRSS4 (11748680_a_at) / RFU FAM212B (11763350_a_at) / Fold change /veh FAM212B (11763350_a_at) / RFU PLEKHG5 (11743358_a_at) / Fold change /veh PLEKHG5 (11743358_a_at) / RFU ZSCAN30 (11745921_a_at) / Fold change /veh ZSCAN30 (11745921_a_at) / RFU CMKLR1 (11741424_a_at) / Fold change /veh CMKLR1 (11741424_a_at) / RFU LOC101060620 /// MAPK8IP1 (11723275_at) / Fold change /veh LOC101060620 /// MAPK8IP1 (11723275_at) / RFU SPTSSB (11747773_x_at) / Fold change /veh SPTSSB (11747773_x_at) / RFU PRSS12 (11739890_at) / Fold change /veh PRSS12 (11739890_at) / RFU BIN1 (11741810_x_at) / Fold change /veh BIN1 (11741810_x_at) / RFU WNT11 (11732464_a_at) / Fold change /veh WNT11 (11732464_a_at) / RFU C10orf10 (11716521_a_at) / Fold change /veh C10orf10 (11716521_a_at) / RFU C5orf56 (11738089_at) / Fold change /veh C5orf56 (11738089_at) / RFU CYB561 (11721691_x_at) / Fold change /veh CYB561 (11721691_x_at) / RFU ANKRD19P (11752326_a_at) / Fold change /veh ANKRD19P (11752326_a_at) / RFU OR2T12 /// OR2T33 /// OR2T8 (11738714_s_at) / Fold change /veh OR2T12 /// OR2T33 /// OR2T8 (11738714_s_at) / RFU VCAN (11748164_a_at) / Fold change /veh VCAN (11748164_a_at) / RFU JSRP1 (11732532_at) / Fold change /veh JSRP1 (11732532_at) / RFU KRTAP10-11 (11738290_x_at) / Fold change /veh KRTAP10-11 (11738290_x_at) / RFU MYO3A (11730013_a_at) / Fold change /veh MYO3A (11730013_a_at) / RFU EBF3 (11725865_a_at) / Fold change /veh EBF3 (11725865_a_at) / RFU CAMK2N1 (11719241_x_at) / Fold change /veh CAMK2N1 (11719241_x_at) / RFU C5orf56 (11738088_a_at) / Fold change /veh C5orf56 (11738088_a_at) / RFU OLFML3 (11715873_a_at) / Fold change /veh OLFML3 (11715873_a_at) / RFU LOC100653217 /// NTM (11731650_a_at) / Fold change /veh LOC100653217 /// NTM (11731650_a_at) / RFU MAPK11 (11762145_a_at) / Fold change /veh MAPK11 (11762145_a_at) / RFU FIZ1 (11724087_x_at) / Fold change /veh FIZ1 (11724087_x_at) / RFU OASL (11726364_x_at) / Fold change /veh OASL (11726364_x_at) / RFU SOX15 (11748057_x_at) / Fold change /veh SOX15 (11748057_x_at) / RFU CD79A (11719716_a_at) / Fold change /veh CD79A (11719716_a_at) / RFU HIST1H1D (11736915_at) / Fold change /veh HIST1H1D (11736915_at) / RFU CASKIN2 (11723855_a_at) / Fold change /veh CASKIN2 (11723855_a_at) / RFU LOC730098 (11760151_x_at) / Fold change /veh LOC730098 (11760151_x_at) / RFU OR4N2 (11742367_at) / Fold change /veh OR4N2 (11742367_at) / RFU PRRT2 (11749266_a_at) / Fold change /veh PRRT2 (11749266_a_at) / RFU SNX32 (11753110_a_at) / Fold change /veh SNX32 (11753110_a_at) / RFU CDHR5 (11726645_a_at) / Fold change /veh CDHR5 (11726645_a_at) / RFU RCAN1 (11760418_a_at) / Fold change /veh RCAN1 (11760418_a_at) / RFU FAM167A (11723789_a_at) / Fold change /veh FAM167A (11723789_a_at) / RFU FAM26E (11764081_at) / Fold change /veh FAM26E (11764081_at) / RFU ISYNA1 (11749810_s_at) / Fold change /veh ISYNA1 (11749810_s_at) / RFU ACY1 (11761880_at) / Fold change /veh ACY1 (11761880_at) / RFU 11764098_at / Fold change /veh 11764098_at / RFU SAMD14 (11745864_x_at) / Fold change /veh SAMD14 (11745864_x_at) / RFU NPB (11741838_a_at) / Fold change /veh NPB (11741838_a_at) / RFU TMPRSS6 (11731388_a_at) / Fold change /veh TMPRSS6 (11731388_a_at) / RFU KRTAP10-2 (11738614_at) / Fold change /veh KRTAP10-2 (11738614_at) / RFU ARHGAP8 /// PRR5-ARHGAP8 (11727945_x_at) / Fold change /veh ARHGAP8 /// PRR5-ARHGAP8 (11727945_x_at) / RFU KRTAP5-7 /// NADSYN1 (11734609_at) / Fold change /veh KRTAP5-7 /// NADSYN1 (11734609_at) / RFU RASL12 (11751679_a_at) / Fold change /veh RASL12 (11751679_a_at) / RFU CDKN2B (11736163_a_at) / Fold change /veh CDKN2B (11736163_a_at) / RFU PRF1 (11729649_at) / Fold change /veh PRF1 (11729649_at) / RFU, ZNF638 /// ZNF638-IT1 / Fold change vs veh, ZNF638 /// ZNF638-IT1 / RFU, PANK3 / Fold change vs veh, PANK3 / RFU, SH3YL1 / Fold change vs veh, SH3YL1 / RFU, ZEB2 / Fold change vs veh, ZEB2 / RFU, NRIP1 / Fold change vs veh, NRIP1 / RFU, PTTG1IP / Fold change vs veh, PTTG1IP / RFU, CAPN2 / Fold change vs veh, CAPN2 / RFU, MED14 / Fold change vs veh, MED14 / RFU, SNORA58 / Fold change vs veh, SNORA58 / RFU, C1orf63 / Fold change vs veh, C1orf63 / RFU, LRRFIP1 / Fold change vs veh, LRRFIP1 / RFU, NDUFAF7 / Fold change vs veh, NDUFAF7 / RFU, SLC12A2 / Fold change vs veh, SLC12A2 / RFU, IBTK / Fold change vs veh, IBTK / RFU, ESF1 / Fold change vs veh, ESF1 / Fold change vs veh, TMEM50B / RFU, TAOK1 / Fold change vs veh, TAOK1 / RFU, ACBD3 / Fold change vs veh, ACBD3 / RFU, TMA16 / Fold change vs veh, TMA16 / RFU, RWDD3 / Fold change vs veh, RWDD3 / RFU, BCAT1 / Fold change vs veh, BCAT1 / RFU, EDEM3 / Fold change vs veh, EDEM3 / RFU, TMEM33 / Fold change vs veh, TMEM33 / RFU, WDR75 / Fold change vs veh, WDR75 / RFU, AHCTF1 / Fold change vs veh, AHCTF1 / RFU, TFRC / Fold change vs veh, TFRC / RFU, ZDHHC17 / Fold change vs veh, ZDHHC17 / RFU, NOM1 / Fold change vs veh, NOM1 / RFU, ARL8B / Fold change vs veh, ARL8B / RFU, ZBTB11 / Fold change vs veh, ZBTB11 / RFU, TAMM41 / Fold change vs veh, TAMM41 / RFU, KIAA1704 /// LOC100996395 / Fold change vs veh, KIAA1704 /// LOC100996395 / RFU, ING1 / Fold change vs veh, ING1 / RFU, TRMT61B / Fold change vs veh, TRMT61B / RFU, FUBP3 / Fold change vs veh, FUBP3 / RFU, TP53 / Fold change vs veh, TP53 / RFU, TNKS2 / Fold change vs veh, TNKS2 / RFU, ZFP14 / Fold change vs veh, ZFP14 / RFU, ACTR2 / Fold change vs veh, ACTR2 / RFU, PPP3R1 / Fold change vs veh, PPP3R1 / RFU, PIK3R1 / Fold change vs veh, PIK3R1 / RFU, HNRNPA1 / Fold change vs veh, HNRNPA1 / RFU, RNF170 / Fold change vs veh, RNF170 / RFU, ZNF28 / Fold change vs veh, ZNF28 / RFU, RNGTT / Fold change vs veh, RNGTT / RFU, OGT / Fold change vs veh, OGT / RFU, BRD1 / Fold change vs veh, BRD1 / RFU, MARS / Fold change vs veh, MARS / RFU, ZNF655 / Fold change vs veh, ZNF655 / RFU, FAHD1 / Fold change vs veh, FAHD1 / RFU, BDP1 / Fold change vs veh, BDP1 / RFU, LRRCC1 / Fold change vs veh, LRRCC1 / RFU, ARID1A / Fold change vs veh, ARID1A / RFU, ZNF146 / Fold change vs veh, ZNF146 / RFU, ZNF330 / Fold change vs veh, ZNF330 / RFU, GPN3 / Fold change vs veh, GPN3 / RFU, C9orf123 / Fold change vs veh, C9orf123 / RFU, N4BP2L2 / Fold change vs veh, N4BP2L2 / RFU, ARFIP1 / Fold change vs veh, ARFIP1 / RFU, FAM179B / Fold change vs veh, FAM179B / RFU, BCL10 / Fold change vs veh, BCL10 / RFU, UHRF1BP1L / Fold change vs veh, UHRF1BP1L / RFU, BET1 / Fold change vs veh, BET1 / RFU, CNOT2 / Fold change vs veh, CNOT2 / RFU, ZNF268 / Fold change vs veh, ZNF268 / Fold change vs veh, ZNF507 / RFU, DGCR2 / Fold change vs veh, DGCR2 / RFU, WDSUB1 / Fold change vs veh, WDSUB1 / Fold change vs veh, HSP90B1 /// MIR3652 / RFU, ADSS / Fold change vs veh, ADSS / RFU, GK / Fold change vs veh, GK / RFU, ZNF148 / Fold change vs veh, ZNF148 / RFU, TAF9 / Fold change vs veh, TAF9 / RFU, SLC1A5 / Fold change vs veh, SLC1A5 / RFU, SLMO2 / Fold change vs veh, SLMO2 / RFU, ABCC4 / Fold change vs veh, ABCC4 / RFU, LOC101060439 /// RAP1B / Fold change vs veh, LOC101060439 /// RAP1B / RFU, RFX7 / Fold change vs veh, RFX7 / RFU, GTPBP10 / Fold change vs veh, GTPBP10 / RFU, CNEP1R1 / Fold change vs veh, CNEP1R1 / RFU, BIVM-ERCC5 /// ERCC5 / Fold change vs veh, BIVM-ERCC5 /// ERCC5 / RFU, ILF3 / Fold change vs veh, ILF3 / RFU 11762660_at / Fold change /veh 11762660_at / RFU VCAN (11757783_s_at) / Fold change /veh VCAN (11757783_s_at) / RFU DDX43 (11728927_at) / Fold change /veh DDX43 (11728927_at) / RFU KRT8 (11758188_x_at) / Fold change /veh KRT8 (11758188_x_at) / RFU NKD1 (11759106_at) / Fold change /veh NKD1 (11759106_at) / RFU SRD5A1 (11742802_a_at) / Fold change /veh SRD5A1 (11742802_a_at) / RFU TPSAB1 /// TPSB2 (11721975_s_at) / Fold change /veh TPSAB1 /// TPSB2 (11721975_s_at) / RFU GSTM3 (11746129_a_at) / Fold change /veh GSTM3 (11746129_a_at) / RFU IL23R (11737362_x_at) / Fold change /veh IL23R (11737362_x_at) / RFU TMEM51 (11727254_a_at) / Fold change /veh TMEM51 (11727254_a_at) / RFU PIWIL2 (11732686_x_at) / Fold change /veh PIWIL2 (11732686_x_at) / RFU ORM1 (11744905_x_at) / Fold change /veh ORM1 (11744905_x_at) / RFU CCDC152 (11743942_at) / Fold change /veh CCDC152 (11743942_at) / RFU ECM1 (11717891_a_at) / Fold change /veh ECM1 (11717891_a_at) / RFU IL23R (11748794_a_at) / Fold change /veh IL23R (11748794_a_at) / RFU TNFAIP8L3 (11732012_x_at) / Fold change /veh TNFAIP8L3 (11732012_x_at) / RFU MBOAT4 (11741988_at) / Fold change /veh MBOAT4 (11741988_at) / RFU 11764193_at / Fold change /veh 11764193_at / RFU TMEM53 (11763286_at) / Fold change /veh TMEM53 (11763286_at) / RFU MAGEB2 (11727129_at) / Fold change /veh MAGEB2 (11727129_at) / RFU TMEM200A (11744735_a_at) / Fold change /veh TMEM200A (11744735_a_at) / RFU CCDC152 (11751479_a_at) / Fold change /veh CCDC152 (11751479_a_at) / RFU FAM211A (11726209_a_at) / Fold change /veh FAM211A (11726209_a_at) / RFU RGS16 (11746705_a_at) / Fold change /veh RGS16 (11746705_a_at) / RFU VCAN (11755009_s_at) / Fold change /veh VCAN (11755009_s_at) / RFU RHOB (11743442_s_at) / Fold change /veh RHOB (11743442_s_at) / RFU RGS16 (11720943_a_at) / Fold change /veh RGS16 (11720943_a_at) / RFU RGS16 (11720944_at) / Fold change /veh RGS16 (11720944_at) / RFU, VPS4B / Fold change vs veh, VPS4B / RFU, CREB1 / Fold change vs veh, CREB1 / RFU, DNAJC13 / Fold change vs veh, DNAJC13 / RFU, GNAQ / Fold change vs veh, GNAQ / RFU, CDK5R1 / Fold change vs veh, CDK5R1 / RFU, ZRANB3 / Fold change vs veh, ZRANB3 / RFU, CUL4A / Fold change vs veh, CUL4A / RFU, CCNY / Fold change vs veh, CCNY / RFU, UFL1 / Fold change vs veh, UFL1 / RFU, COG3 / Fold change vs veh, COG3 / RFU, DIAPH2 / Fold change vs veh, DIAPH2 / RFU, SKA2 / Fold change vs veh, SKA2 / RFU, AFF3 / Fold change vs veh, AFF3 / RFU, LMF1 / Fold change vs veh, LMF1 / RFU, IPO11 / Fold change vs veh, IPO11 / RFU, DFFB / Fold change vs veh, DFFB / RFU, FOXP1 / Fold change vs veh, FOXP1 / RFU, CARD8 / Fold change vs veh, CARD8 / RFU, STRN3 / Fold change vs veh, STRN3 / RFU, ADK / Fold change vs veh, ADK / RFU, RASSF2 / Fold change vs veh, RASSF2 / RFU, WIPF1 / Fold change vs veh, WIPF1 / RFU, LARP1B / Fold change vs veh, LARP1B / RFU, RASA1 / Fold change vs veh, RASA1 / RFU, RB1 / Fold change vs veh, RB1 / RFU, PPFIA1 / Fold change vs veh, PPFIA1 / RFU, MAT2A / Fold change vs veh, MAT2A / RFU, CCT5 / Fold change vs veh, CCT5 / RFU, WDR92 / Fold change vs veh, WDR92 / RFU, CUX1 / Fold change vs veh, CUX1 / RFU, TTC7A / Fold change vs veh, TTC7A / RFU, TMEM135 / Fold change vs veh, TMEM135 / RFU, DEPTOR / Fold change vs veh, DEPTOR / RFU, CPM / Fold change vs veh, CPM / RFU, DNAJB6 / Fold change vs veh, DNAJB6 / RFU, CACNA2D3 / Fold change vs veh, CACNA2D3 / RFU, DTX4 / Fold change vs veh, DTX4 / RFU, TFCP2 / Fold change vs veh, TFCP2 / RFU, GMCL1 /// GMCL1P1 / Fold change vs veh, GMCL1 /// GMCL1P1 / RFU, AEBP2 / Fold change vs veh, AEBP2 / RFU, SNHG1 /// SNORD22 /// SNORD25 /// SNORD26 /// SNORD27 /// SNORD28 /// SNORD29 /// SNORD31 / Fold change vs veh, SNHG1 /// SNORD22 /// SNORD25 /// SNORD26 /// SNORD27 /// SNORD28 /// SNORD29 /// SNORD31 / Fold change (Aza/veh), C12orf56 (ProbeSet 11735607_a_at) / Fold change (ACY-1035/veh), C12orf56 (ProbeSet 11735607_a_at) / Fold change (Aza/veh), FGFR1OP (ProbeSet 11751329_s_at) / Fold change (ACY-1035/veh), FGFR1OP (ProbeSet 11751329_s_at) / Fold change (Aza/veh), VPS36 (ProbeSet 11739960_a_at) / Fold change (ACY-1035/veh), VPS36 (ProbeSet 11739960_a_at) / RFU SYPL1 (11715823_x_at) / Fold change /veh SYPL1 (11715823_x_at) / RFU IGFBP7 (11715501_s_at) / Fold change /veh IGFBP7 (11715501_s_at) / RFU REEP3 (11722064_at) / Fold change /veh REEP3 (11722064_at) / RFU IGLL1 (11728026_x_at) / Fold change /veh IGLL1 (11728026_x_at): dose or concentration left out as unconfirmed
# Conditions: MV-4-11 cells, 48 hours
structure (smiles),measurement,value
Nc1ccc(-c2cccs2)cc1NC(=O)c1ccc2c(c1)cc(C1CC1)n2CCN1CCOCC1 [ACY-1035],Fold change /veh VCAN (11757783_s_at),1.01
